This is an account of results in patent EP0951284B1, “[…] DERIVATIVES” (priority 1996, dated 1998).

Test [1] concerns the target T1, Human erythrocyte acetylcholinesterase (Homo sapiens, UniProt P22303).
T1 construct: Human erythrocyte acetylcholinesterase (type XIII, Sigma Israel); purchased Sigma Israel type XIII; host or cells: human erythrocytes
The test can be described thus: In vitro measurement of acetylcholinesterase (AChE) inhibition (Ellman method). The test is classed as biochemical. The conditions noted are these: at time of peak activity, incubation 15 to 60 minutes at 37°C. The procedure: Human erythrocyte acetylcholinesterase (type XIII, Sigma Israel), was prepared in a stock solution of 1U/ml, containing Triton (1%) and bovine serum albumin (0.05%) in phosphate buffer (pH 8). The enzyme (0.05U) was incubated with 3-5 different concentrations of test compound (in triplicate) for periods of from 15 to 60 minutes at 37°C. […] The percentage inhibition of AChE by each concentration of drug is calculated by comparison with that of enzyme in the absence of drug.
(In general: DTNB colorimetry detects thiols as they appear.)

In test [2] the target is T2, MAO-B (Rattus norvegicus, UniProt P19643).
T2 sequence (P19643 1-520): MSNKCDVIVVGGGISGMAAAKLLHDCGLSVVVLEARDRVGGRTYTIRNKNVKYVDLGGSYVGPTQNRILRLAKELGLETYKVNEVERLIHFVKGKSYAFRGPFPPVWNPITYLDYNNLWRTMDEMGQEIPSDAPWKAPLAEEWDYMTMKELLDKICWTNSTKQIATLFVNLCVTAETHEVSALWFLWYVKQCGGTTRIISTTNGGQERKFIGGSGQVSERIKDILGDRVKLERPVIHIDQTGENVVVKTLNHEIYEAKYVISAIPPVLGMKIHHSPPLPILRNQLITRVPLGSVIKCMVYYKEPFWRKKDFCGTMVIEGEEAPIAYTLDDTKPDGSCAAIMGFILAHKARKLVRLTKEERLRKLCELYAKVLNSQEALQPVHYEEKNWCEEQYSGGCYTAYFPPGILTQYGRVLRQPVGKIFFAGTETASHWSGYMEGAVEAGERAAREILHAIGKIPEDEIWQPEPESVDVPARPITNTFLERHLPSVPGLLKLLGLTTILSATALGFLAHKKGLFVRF
The experiment in a line: Inhibition of MAO activity in vitro, rat brain homogenate, PEA substrate. The test is classed as biochemical. More on the design: The MAO enzyme source was a homogenate of rat brain in 0.3M sucrose; from tissue; host or cells: rat brain homogenate (600G supernatant). As to conditions: PEA 50µM.
Procedure: The MAO enzyme source was a homogenate of rat brain in 0.3M sucrose, which was centrifuged at 600G for 15 minutes. The supernatant was diluted appropriately in 0.05M phosphate buffer, and pre-incubated with serial dilutions of test compounds for 20 minutes at 37°C. ^14C-Labeled substrates (2-phenylethylamine, hereinafter PEA; 5-hydroxytryptamine, hereinafter 5-HT) were then added, and the incubation continued for a further 20 minutes (PEA), or 30-45 minutes (5-HT). Substrate concentrations used were 50µM (PEA) and 1mM (5-HT). In the case of PEA, enzyme concentration was chosen so that not more than 10% of the substrate was metabolized during the course of the reaction. The deaminated products were extracted into toluene-ethyl acetate (1:1, v/v) containing 0.6% (w/v) 2,5-diphenyloxazole prior to determination by liquid scintillation counting. Radioactivity in the eluate indicates the production of neutral and acidic metabolites formed as a result of MAO activity. Activity of MAO in the sample was expressed as a percentage of control activity in the absence of inhibitors after subtraction of appropriate blank values The activity determined using PEA as substrate is referred to as MAO-B, and that determined using 5-HT as MAO-A.

A further test relates to mice. The test can be described thus: Closed head injury in mice: reference memory, Morris water maze. The format is in vivo. The conditions noted are these: Morris water maze after CHI, compared to saline treated controls (Figure 1). The protocol: Morris Water Maze Teat: the water maze consists of a circular aluminium pool, 1m in diameter and 60cm in depth, filled with water to a depth of 17.5cm. The hidden goal platform is a glass vessel (15cm diameter x 16. 5cm height) placed upside down at a fixed location in the pool, 1cm below the surface of the water. The water temperature is maintained at 24°C and the pool is always placed in the same position in the room to provide the same extra-maze cues. Prior to CHI (as described in Example 3 above), mice were given 3 trials per day for 5 consecutive days to establish a baseline performance - measured as the latency to find the platform from the same start location. Commencing 24hr after CHI, mice were retested daily for 2 weeks in 3 trials per day.
It appears that immediately post-CHI mice forget the location of the goal.

Another test addresses T3, MAO-A (Rattus norvegicus, UniProt P21396).
T3 sequence (P21396 1-526): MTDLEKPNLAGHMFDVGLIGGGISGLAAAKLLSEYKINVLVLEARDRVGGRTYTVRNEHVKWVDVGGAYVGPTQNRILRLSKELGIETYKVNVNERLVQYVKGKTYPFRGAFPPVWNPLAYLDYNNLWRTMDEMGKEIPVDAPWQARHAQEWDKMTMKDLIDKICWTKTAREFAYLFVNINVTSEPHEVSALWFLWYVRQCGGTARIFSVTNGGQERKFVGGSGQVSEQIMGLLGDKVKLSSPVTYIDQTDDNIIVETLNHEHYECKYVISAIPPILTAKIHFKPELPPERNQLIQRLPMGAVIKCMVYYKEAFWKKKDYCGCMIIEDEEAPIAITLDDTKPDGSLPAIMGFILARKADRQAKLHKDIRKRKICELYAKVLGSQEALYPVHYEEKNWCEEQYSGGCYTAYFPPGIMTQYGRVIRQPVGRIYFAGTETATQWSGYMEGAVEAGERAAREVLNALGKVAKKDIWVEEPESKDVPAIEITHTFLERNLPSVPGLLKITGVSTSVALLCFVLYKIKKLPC
The test can be described thus: Inhibition of MAO activity following sub-acute (14 days) administration to rats, MAO-A. The conditions noted are these: 20mg/kg daily for 14 days. The test is classed as in vivo. More on the design: from tissue; host or cells: brain, liver and intestine of Sprague Dawley rats. The protocol:
(§1) Male Sabra mice, weighing 45-50g were injected with test compound solutions (prepared in 0.9% saline). Each dose was administered to two or three mice. The mice were sacrificed two hours after drug administration or at a time corresponding to the peak AChE inhibition time (see Table 6). The brain and liver were rapidly dissected and stored in appropriate vials on ice. The tissues were weighed, diluted to 1/20 in sucrose 0.3M and stored at -20°C before performance of the MAO assay described above. The results given in Table 6 relate to measurements made on brain tissue only.
(§2) Experiments were done with Spague Dawley male rats. Procedures were repeated as described in Examples 2.1 and 2.2, but drug administration was continued daily for 14 days. At the end of this period animals were sacrificed and MAO levels determined in the brain, liver and intestines. Compound 17 was administered sub-cutaneously or per os at a dose of 20mg/kg.

In test [3] the target is T2, MAO-B. The experiment in a line: Inhibition of MAO activity following sub-acute (14 days) administration to rats, MAO-B. The format is in vivo. Also noted: from tissue; host or cells: brain, liver and intestine of Sprague Dawley rats. As to conditions: 20mg/kg daily for 14 days. The protocol: as §1, §2

Counter-ions that a name gives are not always drawn.

T1 sequence (P22303 32-617 isoform P22303-2 limits assumed): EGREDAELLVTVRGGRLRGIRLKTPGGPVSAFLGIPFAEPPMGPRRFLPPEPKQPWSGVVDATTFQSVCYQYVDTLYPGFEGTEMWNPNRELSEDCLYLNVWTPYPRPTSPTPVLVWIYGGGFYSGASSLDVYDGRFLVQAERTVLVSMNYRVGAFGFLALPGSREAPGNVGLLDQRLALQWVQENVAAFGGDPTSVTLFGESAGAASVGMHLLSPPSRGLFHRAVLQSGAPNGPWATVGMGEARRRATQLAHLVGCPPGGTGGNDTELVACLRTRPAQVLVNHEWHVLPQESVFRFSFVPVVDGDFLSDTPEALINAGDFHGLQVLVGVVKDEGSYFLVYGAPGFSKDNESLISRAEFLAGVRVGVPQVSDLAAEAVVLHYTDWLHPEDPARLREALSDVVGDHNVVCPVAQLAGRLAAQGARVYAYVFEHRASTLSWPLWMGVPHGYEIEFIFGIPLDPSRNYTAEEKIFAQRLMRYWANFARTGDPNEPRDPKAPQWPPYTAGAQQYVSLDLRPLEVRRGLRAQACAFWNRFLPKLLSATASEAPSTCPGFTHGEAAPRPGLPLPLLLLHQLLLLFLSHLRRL

Consider `C#CCNCCc1cccc(OC(=O)N(C)C)c1` [Compound 11], for which the IC50 (usually the concentration needed to halve the response being measured) in test [1] was 820 nM; against MAO-B [2], 25000 nM.
On the same counts, the results for `C#CCN(C)CCc1cccc(OC(=O)N(C)C)c1` [Compound 12] are 880 nM and 2500 nM.
On the same counts, the results for `C#CCNC(C)Cc1cccc(OC(=O)N(C)C)c1` (stereo not drawn) [Compound 16] are 370 nM and 6000 nM.
For the compound `C#CCNC(C)Cc1cccc(OC(=O)N(C)CC)c1` (stereo not drawn) [Compound 17, 3-(N-Me,N-Etcarbamyloxy)α-methyl, N-propargyl phenethylamine.HCl], the 50% inhibitory concentration (IC50) was 36000 nM in test [1] and 2000 nM against MAO-B [2]. Further, in the test with mice, the “latency to find the platform” value is “reduction in latency”. In addition, the inhibition (in general, the share of the control response that was lost under treatment) at 20 mg/kg against MAO-A (po, Brain) stood at 59%; on MAO-A (po, Intestine), 25%; against MAO-A (po, Liver), 59%; against MAO-A (sc, Brain), 76%; against MAO-A (sc, Intestine) it was 10%; at MAO-A (sc, Liver), 33%. The inhibition at 20 mg/kg was found to be 72% at MAO-B [3] (po, Brain); 40% against MAO-B [3] (po, Intestine); 74% at MAO-B [3] (po, Liver); 87% on MAO-B [3] (sc, Brain); 33% against MAO-B [3] (sc, Intestine); 51% against MAO-B [3] (sc, Liver).
